Test results from ChEMBL document CHEMBL4393657, “Tetrazole hybrids and their antifungal activities” (2019).
Converted amounts (≈) assume the structure as drawn.

Tests used:
Format in all cases: functional
Pichia kudriavzevii = assay: Antifungal activity against Candida krusei assessed as reduction in fungal cell growth incubated for 48 hrs by broth microdilution method
Cryptococcus neoformans = assay: Antifungal activity against Cryptococcus neoformans LA314 assessed as reduction in fungal cell growth incubated for 48 hrs by broth microdilution method; settings: LA314, 48 h
Nakaseomyces glabratus = assay: Antifungal activity against Candida glabrata assessed as reduction in fungal cell growth incubated for 48 hrs by broth microdilution method
Candida parapsilosis = assay: Antifungal activity against Candida parapsilosis ATCC 22019 assessed as reduction in fungal cell growth incubated for 48 hrs by broth microdilution method; settings: Lodderomyces parapsilosis, ATCC 22019, 48 h
Aspergillus niger = assay: Antifungal activity against Aspergillus niger assessed as reduction in fungal cell growth incubated for 72 hrs by broth microdilution method
Candida albicans = assay: Antifungal activity against Candida albicans assessed as reduction in fungal cell growth incubated for 48 hrs by broth microdilution method
Candida tropicalis = assay: Antifungal activity against Candida tropicalis assessed as reduction in fungal cell growth incubated for 48 hrs by broth microdilution method

SMILES | MIC (Pichia kudriavzevii) | MIC (Cryptococcus neoformans) | MIC (Nakaseomyces glabratus) | MIC (Candida parapsilosis) | MIC (Aspergillus niger) | MIC (Candida albicans) | MIC (Candida tropicalis)
CCCCOc1ccccc1N1CCN(CCc2nnn(CC(O)(Cn3cncn3)c3ccc(F)cc3F)n2)CC1 (stereo unspecified) | 1 to 16 µg/mL (≈ 1.76 to 28.2 µM) | 1 to 16 µg/mL (≈ 1.76 to 28.2 µM) | 1 to 16 µg/mL (≈ 1.76 to 28.2 µM) | 1 to 16 µg/mL (≈ 1.76 to 28.2 µM) | 1 to 16 µg/mL (≈ 1.76 to 28.2 µM) | 1 to 16 µg/mL (≈ 1.76 to 28.2 µM) | 1 to 16 µg/mL (≈ 1.76 to 28.2 µM)
OC(Cn1cncn1)(Cn1nnc(CCN2CCN(c3cccc(Cl)c3)CC2)n1)c1ccc(F)cc1F (stereo unspecified) | 1 to 16 µg/mL (≈ 1.89 to 30.2 µM) | 1 to 16 µg/mL (≈ 1.89 to 30.2 µM) | 1 to 16 µg/mL (≈ 1.89 to 30.2 µM) | 1 to 16 µg/mL (≈ 1.89 to 30.2 µM) | 1 to 16 µg/mL (≈ 1.89 to 30.2 µM) | 1 to 16 µg/mL (≈ 1.89 to 30.2 µM) | 1 to 16 µg/mL (≈ 1.89 to 30.2 µM)
O=[N+]([O-])c1ccc(N2CCN(CCc3nnnn3CC(O)(Cn3cncn3)c3ccc(F)cc3F)CC2)cc1 (stereo unspecified) | 0.5 to 16 µg/mL (≈ 0.925 to 29.6 µM) | 0.5 to 16 µg/mL (≈ 0.925 to 29.6 µM) | 0.5 to 16 µg/mL (≈ 0.925 to 29.6 µM) | 0.5 to 16 µg/mL (≈ 0.925 to 29.6 µM) | 0.5 to 16 µg/mL (≈ 0.925 to 29.6 µM) | 0.5 to 16 µg/mL (≈ 0.925 to 29.6 µM) | 0.5 to 16 µg/mL (≈ 0.925 to 29.6 µM)
OC(Cn1cncn1)(Cn1nnnc1CCN1CCN(c2ccccc2)CC1)c1ccc(F)cc1F (stereo unspecified) | 0.5 to 16 µg/mL (≈ 1.01 to 32.3 µM) | 0.5 to 16 µg/mL (≈ 1.01 to 32.3 µM) | 0.5 to 16 µg/mL (≈ 1.01 to 32.3 µM) | 0.5 to 16 µg/mL (≈ 1.01 to 32.3 µM) | 0.5 to 16 µg/mL (≈ 1.01 to 32.3 µM) | 0.5 to 16 µg/mL (≈ 1.01 to 32.3 µM) | 0.5 to 16 µg/mL (≈ 1.01 to 32.3 µM)
CC(n1nnc(CCN2CCN(C(c3ccccc3)c3ccccc3)CC2)n1)C(O)(Cn1cncn1)c1ccc(F)cc1F (stereo unspecified) | 1 to 16 µg/mL (≈ 1.67 to 26.7 µM) | 1 to 16 µg/mL (≈ 1.67 to 26.7 µM) | 1 to 16 µg/mL (≈ 1.67 to 26.7 µM) | 1 to 16 µg/mL (≈ 1.67 to 26.7 µM) | 1 to 16 µg/mL (≈ 1.67 to 26.7 µM) | 1 to 16 µg/mL (≈ 1.67 to 26.7 µM) | 1 to 16 µg/mL (≈ 1.67 to 26.7 µM)
OC(Cn1cncn1)(Cn1nnnc1CCN1CCN(c2cccc(C(F)(F)F)c2)CC1)c1ccc(F)cc1F (stereo unspecified) | 0.5 to 16 µg/mL (≈ 0.887 to 28.4 µM) | 0.5 to 16 µg/mL (≈ 0.887 to 28.4 µM) | 0.5 to 16 µg/mL (≈ 0.887 to 28.4 µM) | 0.5 to 16 µg/mL (≈ 0.887 to 28.4 µM) | 0.5 to 16 µg/mL (≈ 0.887 to 28.4 µM) | 0.5 to 16 µg/mL (≈ 0.887 to 28.4 µM) | 0.5 to 16 µg/mL (≈ 0.887 to 28.4 µM)
COc1ccc(N2CCN(CCc3nnnn3[C@@H](C)[C@](O)(Cn3cncn3)c3ccc(F)cc3F)CC2)cc1 | 0.12 to 16 µg/mL (≈ 0.222 to 29.7 µM) | 0.12 to 16 µg/mL (≈ 0.222 to 29.7 µM) | 0.12 to 16 µg/mL (≈ 0.222 to 29.7 µM) | 0.12 to 16 µg/mL (≈ 0.222 to 29.7 µM) | 0.12 to 16 µg/mL (≈ 0.222 to 29.7 µM) | 0.12 to 16 µg/mL (≈ 0.222 to 29.7 µM) | 0.12 to 16 µg/mL (≈ 0.222 to 29.7 µM)
CC(n1nnnc1CCN1CCN(c2ccc([N+](=O)[O-])cc2)CC1)C(O)(Cn1cncn1)c1ccc(F)cc1F (stereo unspecified) | 0.5 to 16 µg/mL (≈ 0.902 to 28.9 µM) | 0.5 to 16 µg/mL (≈ 0.902 to 28.9 µM) | 0.5 to 16 µg/mL (≈ 0.902 to 28.9 µM) | 0.5 to 16 µg/mL (≈ 0.902 to 28.9 µM) | 0.5 to 16 µg/mL (≈ 0.902 to 28.9 µM) | 0.5 to 16 µg/mL (≈ 0.902 to 28.9 µM) | 0.5 to 16 µg/mL (≈ 0.902 to 28.9 µM)
OC(Cn1cncn1)(Cn1nnnc1CCN1CCN(c2c(Cl)cccc2Cl)CC1)c1ccc(F)cc1F (stereo unspecified) | 0.5 to 16 µg/mL (≈ 0.886 to 28.3 µM) | 0.5 to 16 µg/mL (≈ 0.886 to 28.3 µM) | 0.5 to 16 µg/mL (≈ 0.886 to 28.3 µM) | 0.5 to 16 µg/mL (≈ 0.886 to 28.3 µM) | 0.5 to 16 µg/mL (≈ 0.886 to 28.3 µM) | 0.5 to 16 µg/mL (≈ 0.886 to 28.3 µM) | 0.5 to 16 µg/mL (≈ 0.886 to 28.3 µM)
COc1ccc(N2CCN(CCc3nnnn3CC(O)(Cn3cncn3)c3ccc(F)cc3F)CC2)cc1 (stereo unspecified) | 0.5 to 16 µg/mL (≈ 0.951 to 30.4 µM) | 0.5 to 16 µg/mL (≈ 0.951 to 30.4 µM) | 0.5 to 16 µg/mL (≈ 0.951 to 30.4 µM) | 0.5 to 16 µg/mL (≈ 0.951 to 30.4 µM) | 0.5 to 16 µg/mL (≈ 0.951 to 30.4 µM) | 0.5 to 16 µg/mL (≈ 0.951 to 30.4 µM) | 0.5 to 16 µg/mL (≈ 0.951 to 30.4 µM)
OC(Cn1cncn1)(Cn1nnnc1CCN1CCN(C(c2ccccc2)c2ccccc2)CC1)c1ccc(F)cc1F (stereo unspecified) | 0.5 to 16 µg/mL (≈ 0.854 to 27.3 µM) | 0.5 to 16 µg/mL (≈ 0.854 to 27.3 µM) | 0.5 to 16 µg/mL (≈ 0.854 to 27.3 µM) | 0.5 to 16 µg/mL (≈ 0.854 to 27.3 µM) | 0.5 to 16 µg/mL (≈ 0.854 to 27.3 µM) | 0.5 to 16 µg/mL (≈ 0.854 to 27.3 µM) | 0.5 to 16 µg/mL (≈ 0.854 to 27.3 µM)

Results, then the compound that gave them:

MIC (Pichia kudriavzevii) | MIC (Cryptococcus neoformans) | MIC (Nakaseomyces glabratus) | MIC (Candida parapsilosis) | MIC (Aspergillus niger) | MIC (Candida albicans) | MIC (Candida tropicalis) | SMILES
1 to 16 µg/mL (≈ 1.84 to 29.4 µM) | 1 to 16 µg/mL (≈ 1.84 to 29.4 µM) | 1 to 16 µg/mL (≈ 1.84 to 29.4 µM) | 1 to 16 µg/mL (≈ 1.84 to 29.4 µM) | 1 to 16 µg/mL (≈ 1.84 to 29.4 µM) | 1 to 16 µg/mL (≈ 1.84 to 29.4 µM) | 1 to 16 µg/mL (≈ 1.84 to 29.4 µM) | CC(n1nnc(CCN2CCN(c3ccc(Cl)cc3)CC2)n1)C(O)(Cn1cncn1)c1ccc(F)cc1F (stereo unspecified)
0.25 to 16 µg/mL (≈ 0.46 to 29.4 µM) | 0.25 to 16 µg/mL (≈ 0.46 to 29.4 µM) | 0.25 to 16 µg/mL (≈ 0.46 to 29.4 µM) | 0.25 to 16 µg/mL (≈ 0.46 to 29.4 µM) | 0.25 to 16 µg/mL (≈ 0.46 to 29.4 µM) | 0.25 to 16 µg/mL (≈ 0.46 to 29.4 µM) | 0.25 to 16 µg/mL (≈ 0.46 to 29.4 µM) | C[C@H](n1nnc(CCN2CCN(c3ccccc3Cl)CC2)n1)[C@](O)(Cn1cncn1)c1ccc(F)cc1F
0.5 to 16 µg/mL (≈ 0.981 to 31.4 µM) | 0.5 to 16 µg/mL (≈ 0.981 to 31.4 µM) | 0.5 to 16 µg/mL (≈ 0.981 to 31.4 µM) | 0.5 to 16 µg/mL (≈ 0.981 to 31.4 µM) | 0.5 to 16 µg/mL (≈ 0.981 to 31.4 µM) | 0.5 to 16 µg/mL (≈ 0.981 to 31.4 µM) | 0.5 to 16 µg/mL (≈ 0.981 to 31.4 µM) | CC(n1nnnc1CCN1CCN(c2ccccc2)CC1)C(O)(Cn1cncn1)c1ccc(F)cc1F (stereo unspecified)
0.12 to 16 µg/mL (≈ 0.221 to 29.4 µM) | 0.12 to 16 µg/mL (≈ 0.221 to 29.4 µM) | 0.12 to 16 µg/mL (≈ 0.221 to 29.4 µM) | 0.12 to 16 µg/mL (≈ 0.221 to 29.4 µM) | 0.12 to 16 µg/mL (≈ 0.221 to 29.4 µM) | 0.12 to 16 µg/mL (≈ 0.221 to 29.4 µM) | 0.12 to 16 µg/mL (≈ 0.221 to 29.4 µM) | C[C@H](n1nnnc1CCN1CCN(c2cccc(Cl)c2)CC1)[C@](O)(Cn1cncn1)c1ccc(F)cc1F
1 to 16 µg/mL (≈ 1.9 to 30.4 µM) | 1 to 16 µg/mL (≈ 1.9 to 30.4 µM) | 1 to 16 µg/mL (≈ 1.9 to 30.4 µM) | 1 to 16 µg/mL (≈ 1.9 to 30.4 µM) | 1 to 16 µg/mL (≈ 1.9 to 30.4 µM) | 1 to 16 µg/mL (≈ 1.9 to 30.4 µM) | 1 to 16 µg/mL (≈ 1.9 to 30.4 µM) | COc1ccccc1N1CCN(CCc2nnn(CC(O)(Cn3cncn3)c3ccc(F)cc3F)n2)CC1 (stereo unspecified)
0.25 to 16 µg/mL (≈ 0.417 to 26.7 µM) | 0.25 to 16 µg/mL (≈ 0.417 to 26.7 µM) | 0.25 to 16 µg/mL (≈ 0.417 to 26.7 µM) | 0.25 to 16 µg/mL (≈ 0.417 to 26.7 µM) | 0.25 to 16 µg/mL (≈ 0.417 to 26.7 µM) | 0.25 to 16 µg/mL (≈ 0.417 to 26.7 µM) | 0.25 to 16 µg/mL (≈ 0.417 to 26.7 µM) | C[C@H](n1nnc(CCN2CCN(C(c3ccccc3)c3ccccc3)CC2)n1)[C@](O)(Cn1cncn1)c1ccc(F)cc1F
1 to 16 µg/mL (≈ 1.89 to 30.2 µM) | 1 to 16 µg/mL (≈ 1.89 to 30.2 µM) | 1 to 16 µg/mL (≈ 1.89 to 30.2 µM) | 1 to 16 µg/mL (≈ 1.89 to 30.2 µM) | 1 to 16 µg/mL (≈ 1.89 to 30.2 µM) | 1 to 16 µg/mL (≈ 1.89 to 30.2 µM) | 1 to 16 µg/mL (≈ 1.89 to 30.2 µM) | OC(Cn1cncn1)(Cn1nnc(CCN2CCN(c3ccccc3Cl)CC2)n1)c1ccc(F)cc1F (stereo unspecified)
